Our source for the Ratio and COMPARE correlation coefficient values is ChEMBL document CHEMBL1128734, “Pyrrolo[1,2-a]benzimidazole-based quinones and iminoquinones. The role of the 3-substituent on cytotoxicity” (J Med Chem, 1995).

SMILES strings stand for the structures.

The subject of the first assay is Cancer cell lines. The assay is described as follows: Ratio of the LC50 value to that of imino-APBI-A. Type of assay: functional.
Take `COCC(=O)C1CCn2c1nc1c2C(=O)C(C)=C(NC(C)=O)C1=N` (configuration not stated): the Ratio is 0.52.
On the same count and under the same terms, then `CCC(=O)OC1CCn2c1nc1c2C(=O)C(C)=C(NC(C)=O)C1=N` (configuration not stated), with 0.26.
On the same count and under the same terms, then `CC(=O)NC1=C(C)C(=O)c2c(nc3n2CCC3OC(C)=O)C1=N` (configuration not stated), with 1.
Same read-out and setting: then `CC(=O)NC1=C(C)C(=O)c2c(nc3n2CCC3O)C1=N` (configuration not stated), with 0.09.
Consider `CC(=O)NC1=C(C)C(=O)c2c(nc3n2CCC3OC(=O)c2ccccc2)C1=N` (configuration not stated), for which the Ratio is 0.58.

System in another assay: not listed separately
The assay is described as follows: COMPARE correlation coefficient of the LC50 response pattern with that of APBI-A.
Take `CC(=O)NC1=C(C)C(=O)c2c(nc3n2CCC3OC(C)=O)C1=O` (configuration not stated): the COMPARE correlation coefficient came to 1.
On the same count and under the same terms, then `COCC(=O)C1CCn2c1nc1c2C(=O)C(C)=C(NC(C)=O)C1=O` (configuration not stated), with 0.71; and `CC(=O)NC1=C(C)C(=O)c2c(nc3n2CCC3)C1=O`, with 0.7.

System in another assay: not listed separately
The experiment in a line: Ratio of the LC50 value to that of PBI-A. The class given is functional.
As to `CCC(=O)OC1CCn2c1nc1c2C(=O)C(C)=C(N2CC2)C1=O` (configuration not stated), the Ratio was determined as 0.72.
The same measure, in the same setting: then `CC1=C(N2CC2)C(=O)c2nc3n(c2C1=O)CCC3`, with 0.71; and `CC1=C(N2CC2)C(=O)c2nc3n(c2C1=O)CCC3OC(N)=O` (configuration not stated), with 0.84.
Still for that read-out and setting: then `CC(=O)OC1CCn2c1nc1c2C(=O)C(C)=C(N2CC2)C1=O` (configuration not stated), with 1.
